The values below come from patent publication US20060173015A1, “Cyclohexyldiamines as selective alpha 1a/1d adrenoreceptor antagonists for the treatment of benign prostatic hypertrophy and lower urinary tract symptoms” (priority 2004, published 2006).

In one assay the target is T1, α1a-AR (Homo sapiens, UniProt P35348).
T1 construct: expressed in transfected cells; host or cells: COS-7
T1 sequence (P35348 1-466): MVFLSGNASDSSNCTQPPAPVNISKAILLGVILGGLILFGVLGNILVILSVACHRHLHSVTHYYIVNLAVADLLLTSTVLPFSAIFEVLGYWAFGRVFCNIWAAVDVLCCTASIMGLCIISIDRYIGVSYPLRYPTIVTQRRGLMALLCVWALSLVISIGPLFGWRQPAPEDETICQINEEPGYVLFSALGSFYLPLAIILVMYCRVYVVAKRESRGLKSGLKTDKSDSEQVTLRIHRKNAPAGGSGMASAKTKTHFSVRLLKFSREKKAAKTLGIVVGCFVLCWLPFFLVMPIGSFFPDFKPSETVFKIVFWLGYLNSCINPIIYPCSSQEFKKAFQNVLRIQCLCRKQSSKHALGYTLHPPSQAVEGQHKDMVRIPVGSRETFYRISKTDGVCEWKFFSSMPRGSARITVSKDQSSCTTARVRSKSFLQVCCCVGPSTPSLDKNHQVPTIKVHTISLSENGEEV
Kind of assay: α1-Adrenergic receptor radio-ligand (125I-HEAT) binding assay, α1a subtype. The following applies: COS-7 cell membranes, 125I-HEAT. Put shortly: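 Membranes from COS-7 cells transfected with the α1a-AR were incubated with 50 pM final ¹²⁵I-HEAT and test compound (1 pM–10 μM final, half-log steps) in Tris/EDTA/NaCl buffer pH 7.4 for 1 hr at rt. Bound radioactivity was counted after GF/C filtration, in triplicate.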

In a further assay the target is T2, α1b-AR (Homo sapiens, UniProt P35368).
T2 sequence (P35368 1-520): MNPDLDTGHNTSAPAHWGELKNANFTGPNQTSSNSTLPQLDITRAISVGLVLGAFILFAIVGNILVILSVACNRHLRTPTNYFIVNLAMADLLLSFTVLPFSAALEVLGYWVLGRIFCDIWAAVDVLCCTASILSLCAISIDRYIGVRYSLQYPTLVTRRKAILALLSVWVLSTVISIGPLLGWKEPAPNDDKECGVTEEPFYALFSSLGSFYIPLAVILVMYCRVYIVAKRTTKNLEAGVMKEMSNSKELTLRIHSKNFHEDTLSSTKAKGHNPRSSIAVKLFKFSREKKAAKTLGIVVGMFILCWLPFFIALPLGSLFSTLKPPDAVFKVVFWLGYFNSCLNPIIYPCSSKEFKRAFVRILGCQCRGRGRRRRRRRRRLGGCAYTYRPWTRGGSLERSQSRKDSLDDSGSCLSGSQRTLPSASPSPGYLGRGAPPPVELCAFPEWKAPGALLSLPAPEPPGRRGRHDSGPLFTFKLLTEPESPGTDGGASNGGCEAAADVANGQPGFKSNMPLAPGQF
As to the kind of experiment: α1-Adrenergic receptor radio-ligand (125I-HEAT) binding assay, α1b subtype. The following applies: Receptor Binding, Ki α1b-AR, COS-7 cell membranes, 125I-HEAT.

The term Ki denotes a measure of affinity in units of concentration, obtained from inhibition or displacement. A low value points to higher affinity. `COc1ccc(S(=O)(=O)N[C@H]2CC[C@@H](N3CCN(c4ccccc4OCC(F)(F)F)CC3)CC2)cc1OC` [Cpd 69, 3,4-Dimethoxy-N-cis-(4-{4-[2-(2,2,2-trifluoro-ethoxy)-phenyl]-piperazin-1-yl}-cyclohexyl)-benzenesulfonamide]: the Ki on α1a-AR was 1.2 nM; on α1b-AR, 100 nM.
